Measurements: patent publication US8772029B2, “Modulation of oocyte meiotic progression and oocyte activation” (Northwestern University, priority 2011, dated 2014)
“Also recorded” adds a separate entry of the source. Peptide text beside a SMILES is read from it. * marks the point of attachment. Cbz = O=C(OCc1ccccc1)*

Assays:
[1] = tested on: zinc-insufficient oocytes; assay: Spindle phenotype scoring after IVM in TPEN with proteasome inhibitor MG132 added after 10 h; format: cell-based, mouse; conditions: TPEN 10 h, then TPEN + 20 μM MG132 6 h
Method: For IVM studies, immature female CD1 mice (17 to 21 day old) were injected with 5IU equine chorionic gonadotropin (eCG) (Calbiochem, La Jolla, CA) in 100 μL sterile phosphate-buffered saline (PBS), intraperitoneally. After 44 to 48 hours, mice were anesthetized using isoflurane and euthanized by cervical dislocation. Dissected ovaries were placed in Leibovitz L-15 medium containing 1% FBS (L-15/FBS) and 0.2mM 3-isobutyl-1-methylxanthine (IBMX), and large antral follicles were punctured using 28 gauge needles to release cumulus oocyte complexes (COCs). COCs were washed through several drops of culture medium consisting of Minimum Essential Medium (MEM)-alpha with GLUTAMAX supplemented with 10% FBS, 1.5IU/mL human chorionic gonadotropin (hCG), and 5ng/mL epidermal growth factor and placed in culture medium with or without 10 μM N,N,N′,N′-tetrakis(2-pyridylmethyl) ethylenediamine (TPEN). In some experiments Z-Leu-Leu-Leu-al (MG132) was added to culture medium at 20 μM. COCs were cultured in drops of pre-equilibrated medium covered with embryo quality mineral oil at 37° C. in 5% CO2 with a humid environment. Ovulated MII eggs were collected from 4 to 6 week old mice primed with 5IU PMSG followed 48 h later by 5IU hCG. Oviducts were dissected into L-15/FBS, and eggs were removed and treated with 0.03% (w/v) hyaluronidase to remove cumulus cells. Eggs were washed and cultured in potassium simplex optimized medium (KSOM) (Millipore, Billerica, MA) covered with embryo quality mineral oil at 37° C. in 5% CO2.
Oocytes were denuded of cumulus cells and fixed in a microtubule stabilizing buffer (Ibanez et al., 2005) containing 2% formaldehyde and 1% Triton X-100 for 30 min at 37° C. Oocytes were washed and blocked in PBS containing 0.1M glycine, 3mg/mL BSA, 0.01% Tween 20, and 0.01% sodium azide for at least 1 h and were stored in blocking solution at 4° C. for up to 2 weeks. Oocytes were incubated with anti-tubulin antibody (1:100) for 1 h at 37C. followed by three washes in blocking solution. They were then incubated for 1 h in AlexaFluor-488 conjugated anti-mouse secondary antibody (5μg/mL) and rhodamine-phalloidin (2U/mL), washed three additional times, and mounted in VECTASHIELD with DAPI. Microscopy was performed using a Leica SP5 inverted laser-scanning confocal microscope with a 63x oil immersion objective (Leica Microsystems, Heidelberg, Germany). Images were processed using LAS AF software (Leica Microsystems).
It has been previously shown that zinc-insufficient oocytes fail to increase MPF activity following the first meiotic division and have low CCNB1 protein levels (Bernhardt et al., 2010). In order to determine whether this decrease in CCNB1 is the major cause of the observed meiotic arrest phenotype, it was tested whether increasing CCNB1 would be sufficient to rescue MII entry in zinc-insufficient oocytes by inhibiting the proteasome at the end of the MI-MII transition, thereby halting CCNB1 degradation. Experimental oocytes were cultured for 10 hours in TPEN-containing medium and were then transferred into medium containing TPEN as well as the proteasome inhibitor Z-Leu-Leu-Leu-al (MG132) at 20 μM concentration. MG132 was added after first polar body extrusion, because earlier addition would result in MI arrest due to failure to degrade APC/C targets that prevent cell division. Oocytes were cultured for an additional 6 h in the presence of MG132 to allow time for CCNB1 reaccumulation, for a total 16 h IVM culture period. Proteasome inhibition led to a partial rescue of the zinc insufficiency phenotype. 69% of treated oocytes formed spindle-like structures, and none were in telophase I arrest, despite being cultured in the presence of TPEN for the entire culture period (FIG. 2, A; Table 2).
A majority of zinc-insufficient oocytes treated with MG132 following the first meiotic division transition progress beyond telophase-I arrest and form MII spindle-like structures. […]

MPF activity = assay: Histone H1 kinase assay on single oocytes/eggs (MPF activity); format: cell-based, mouse; conditions: TPEN 10 h, then TPEN + 20 μM MG132 6 h
Method: Histone H1 and myelin basic protein (MBP) dual kinase assays were performed as previously described (Svoboda et al., 2000). Dried gels were exposed to Kodak BIOMAX MR films for 12 to 72 hours at −80° C. using Kodak intensifying screens; films were developed, scanned, and analyzed using ImageJ software. Assays were performed on single oocytes, and densitometric analysis is expressed relative to levels in control eggs.

CCNB1 = assay: Western blot for CCNB1 in oocytes; format: cell-based, mouse; conditions: TPEN 10 h, then TPEN + 20 μM MG132 6 h
Method: Western blotting was performed essentially as previously described (Bernhardt et al., 2010). Briefly, 15 to 50 cumulus-denuded oocytes were transferred in a minimal amount of medium to microcentrifuge tubes and immediately lysed in 8 μL of 1x SDSPAGE Sample Buffer (Laemmli, 1970). SDS-PAGE gels were run using the Invitrogen NuPAGE system and transferred to Immobilon-P PVDF membranes (Millipore, Billerica, MA). Blocking and antibody incubations were in 2% w/v ECL Advanced Blocking Reagent (Amersham) in TBS-T (20mM Tris, pH7.4, 137mM NaC1, 0.1% Tween20 v/v). Anti-CCNB1antibody was diluted 1:500, anti-FBXO43 was used at 1:1000 dilution, and anti-tubulin antibody was used at 1:10,000. HRP-conjugated secondary antibodies were diluted 1:10,000. Detection was performed using Amersham ECL Advanced detection reagent. BIOMAX MR films (Kodak, Rochester, NY) were exposed and developed, or an Alpha-Innotech (San Learndo, CA) MultiImage II system was used.

MII eggs = assay: Activation of in vivo ovulated MII eggs (SrCl2, TPEN, ZnPT pre-treatment)
Method: Ovulated MII eggs were collected as described above. Eggs were transferred to KSOM medium with or without 10 μM ZnPT (1:1000 dilution of a 10 mM stock in DMSO) for exactly 5 minutes. Eggs were then washed in KSOM and allowed to recover for 10-15 minutes prior to activation. For SrCl2 activation, eggs were transferred to drops of calcium-free KSOM containing 10 mM SrCl2 for 2 hours, followed by 4 additional hours of culture in calcium-containing KSOM without SrCl2. TPEN activation was performed as previously described (Kim et al., 2011); eggs were cultured for 6 hours in KSOM containing 10 μM TPEN. Unactivated controls were cultured in KSOM for the same 6 hour time period to assess levels of spontaneous parthenogenesis.
MII eggs were treated with the ionophore zinc pyrithione (ZnPT) for 5 minutes to increase intracellular zinc. Following a 10-15 minute recovery period, eggs were then treated with activating agents SrCl2 or TPEN.

Q: With CC(C)C[C@@H](C=O)NC(=O)[C@H](CC(C)C)NC(=O)[C@H](CC(C)C)NC(=O)OCc1ccccc1 [MG132, Z-Leu-Leu-Leu-al] (Cbz-Leu-Leu-Leu-aldehyde) as the compound, how does the “oocytes with some degree of MII spindle formation (spindle-like structures)” value [1] read?
A: Its value is 69%.

Q: What about the “MII (aligned metaphase plate)” value ([1]; n=26) of the same compound?
A: Its value is 19%.

Q: What about the other spindle phenotype ([1]; n=26) of the same compound?
A: The other spindle phenotype was 15%.

Q: What about the “persisting midbody or chromatin mass” value ([1]; n=26) of the same compound?
A: Its value is 15%.

Q: What about the “spindle with chr. scattered along length” value ([1]; n=26) of the same compound?
A: Its value is 19%.

Q: And the “spindle with ≦3 chr. out of place” value ([1]; n=26)?
A: The value was 31%.

Q: And the “MPF activity (histone H1 kinase) compared to oocytes cultured with TPEN alone” value (MPF activity)?
A: The value was “increased”.

Q: And the CCNB1 protein levels (CCNB1)?
A: Its CCNB1 protein levels is “only partially restores; also recorded: only slightly increased”.

Q: How did the “egg activation (second polar body and PN or PN-like structures)” value (MII eggs; control MII eggs, by 6 hours post activation, 10 mM SrCl2 2 h or 10 μM TPEN 6 h) turn out when [Cl-].[Cl-].[Sr+2] [SrCl2] was run?
A: The value was “activated normally”.

Q: For zinc pyrithione [ZnPT], which “MII spindle organisation after ZnPT” value (MII eggs; 10 μM ZnPT 5 minutes, unactivated eggs and SrCl2-treated eggs, 6 hours of culture) is on record?
A: The value was “caused spindle abnormalities”.

Q: What about the “egg activation by TPEN after ZnPT pre-treatment” value (MII eggs; MII eggs, 10 μM ZnPT 5 minutes, then 10 μM TPEN 6 h) of the same compound?
A: The value was “formed second polar bodies and PN-like structures”.

Q: What about the “egg activation by SrCl2 after ZnPT pre-treatment” value (MII eggs; MII eggs, 10 μM ZnPT 5 minutes, then 10 mM SrCl2) of the same compound?
A: The value was “did not show signs of activation”.
